# Experiments:
# Set-up in all cases: key to Synergy (actual significantly higher than expected): *indicates synergy
# Conditions in all cases: for Weed control, Actual: tank mixture
# [1] = test system: large crabgrass (Digitaria sanguinalis); assay: Glasshouse trial, control of large crabgrass, mesotrione and atrazine applied post-emergence; assay type: in vivo
# Protocol: (§1) A glasshouse trial was carried out. Large crabgrass seeds were sown into standard glasshouse potting mix (1:1 v/v Promix:Vero sand soil) contained in 10 cm square plastic pots. Treatments were replicated three times. Mesotrione (in the form Callisto® 480SE) was applied post-emergence to large crabgrass (Digitaria sanguinalis) at either 12 g ai/ha or 24 g ai/ha with or without atrazine (in the form […]®. When used, atrazine was applied at a rate of 140 g ai/ha or 280 g ai/ha. The adjuvant system was X-77 at 0.1% v/v in deionised water. 200 litres of herbicide/adjuvant system was used per hectare. General weed control was evaluated at 7 and 14 days after treatment (DAT). It is noted that all herbicides were applied at reduced field rates because herbicide effects are magnified in a glasshouse environment. Rates were chosen to give a 50 to 70% level of control with herbicides applied alone as this allows for detection of any synergistic effect when tank mixtures are used. The results were evaluated using the Colby formula. The expected result for (A+B) is (A+B)-(A×B/100) where A and B are the 'observed' results for A and B on their own.
# large crabgrass = assay: Glasshouse trial, control of large crabgrass, mesotrione and atrazine applied pre-emergence; assay type: in vivo, Digitaria sanguinalis
# Protocol: as §1, with “own. […] A glasshouse trial was carried out as described in Example 1, but the herbicidal composition was applied pre-emergence, and higher rates of atrazine were used.” for “own.”
# [2] = test system: white clover (Trifolium repens); assay: Glasshouse trial, control of white clover, mesotrione and atrazine applied post-emergence; assay type: in vivo
# Protocol: [The source words this procedure for another organism and says it was used here with some conditions changed.] as §1, with “own. […] A glasshouse trial was carried out as described in Example 1, but the herbicidal composition was applied to white clover (Trifolium repens) instead of large crabgrass, and higher rates of mesotrione were used.” for “own.”
# [3] = atrazine 140 g ai/ha plus mesotrione at 12 g ai/ha
# [4] = atrazine 140 g ai/ha plus mesotrione at 24 g ai/ha
# [5] = atrazine 280 g ai/ha plus mesotrione at 12 g ai/ha
# [6] = atrazine 280 g ai/ha plus mesotrione at 24 g ai/ha
# [7] = atrazine 560 g ai/ha plus mesotrione at 12 g ai/ha
# [8] = atrazine 560 g ai/ha plus mesotrione at 24 g ai/ha
# [9] = atrazine 140 g ai/ha plus mesotrione at 50 g ai/ha
# [10] = atrazine 140 g ai/ha plus mesotrione at 100 g ai/ha
# [11] = atrazine 280 g ai/ha plus mesotrione at 50 g ai/ha
# [12] = atrazine 280 g ai/ha plus mesotrione at 100 g ai/ha
compound,measurement,setting,value
"CCNc1nc(Cl)nc(NC(C)C)n1 [Atrazine, 6-chloro-N-ethyl-N-isopropyl-1,3,5-triazine-2,4-diamine]",Synergy (actual significantly higher than expected),[1]; [3],*
same,"Weed control, Expected (Colby formula)",[1]; [3],37%
same,"Weed control, Actual",[1]; [3],48%
same,Synergy (actual significantly higher than expected),[1]; [4],*
same,"Weed control, Expected (Colby formula)",[1]; [4],68%
same,"Weed control, Actual",[1]; [4],78%
same,Synergy (actual significantly higher than expected),[1]; [5],*
same,"Weed control, Expected (Colby formula)",[1]; [5],37%
same,"Weed control, Actual",[1]; [5],62%
same,Synergy (actual significantly higher than expected),[1]; [6],*
same,"Weed control, Expected (Colby formula)",[1]; [6],68%
same,"Weed control, Actual",[1]; [6],77%
same,Synergy (actual significantly higher than expected),large crabgrass; [5],*
same,"Weed control, Expected (Colby formula)",large crabgrass; [5],68%
same,"Weed control, Actual",large crabgrass; [5],75%
same,"Weed control, Expected (Colby formula)",large crabgrass; [6],97%
same,"Weed control, Actual",large crabgrass; [6],87%
same,Synergy (actual significantly higher than expected),large crabgrass; [7],*
same,"Weed control, Expected (Colby formula)",large crabgrass; [7],60%
same,"Weed control, Actual",large crabgrass; [7],90%
same,"Weed control, Expected (Colby formula)",large crabgrass; [8],96%
same,"Weed control, Actual",large crabgrass; [8],98%
same,"Weed control, Expected (Colby formula)",[2]; [9],58%
same,"Weed control, Actual",[2]; [9],57%
same,Synergy (actual significantly higher than expected),[2]; [10],*
same,"Weed control, Expected (Colby formula)",[2]; [10],68%
same,"Weed control, Actual",[2]; [10],80%
same,"Weed control, Expected (Colby formula)",[2]; [11],74%
same,"Weed control, Actual",[2]; [11],73%
same,Synergy (actual significantly higher than expected),[2]; [12],*
same,"Weed control, Expected (Colby formula)",[2]; [12],80%
same,"Weed control, Actual",[2]; [12],88%

# From patent US20110263425A1, “HERBICIDAL COMPOSITION AND METHOD OF USE THEREOF” (SYNGENTA CROP PROTECTION, INC., priority 2007, published 2011)
